Reference: patent US8084605B2, “Polymorphs of succinate salt of 2-[6-(3-amino-piperidin-1-yl)-3-methyl-2,4-dioxo-3,4-dihydro-2H-pyrimidin-1-ylmethy]-4-fluor-benzonitrile and methods of use therefor” (priority 2006, dated 2011)

Tests used:
Type in all cases: physicochemical
[1] = Moisture sorption/desorption analysis
Procedure: Moisture sorption/desorption data were collected on a VTI SGA-100 Vapor Sorption Analyzer. Sorption and desorption data were collected over a range of 5% to 95% relative humidity (RH) at 10% RH intervals under a nitrogen purge. Samples were not dried prior to analysis. Equilibrium criteria used for analysis were less than 0.0100% weight change in 5 minutes, with a maximum equilibration time of 3 hours if the weight criterion was not met. Data were not corrected for the initial moisture content of the samples. NaCl and PVP were used as calibration standards. Moisture sorption and desorption study was conducted on a sample of Form A+B. The sample was prepared by crashed cooling crystallization (Example 3, section A.6) of the polymorphic forms from a ethanol:water (95:5) solution of Compound I. The moisture sorption and desorption study was conducted according to the procedures outlined in Example 3, section B. 10. The data collected is plotted in FIG. 13 and summarized in Table L. Moisture sorption and desorption study was conducted on a sample of Form E. The sample was prepared by solvent/antisolvent crystallization (Example 3, section A.7) by the addition of acetonitrile to Compound I in water. The moisture sorption and desorption study was conducted according to the procedures outlined in Example 3, section B. 10. The data collected is plotted in FIG. 23 and summarized in Table M. Moisture sorption and desorption study was conducted on a sample of Amorphous Form. The sample was prepared by lyophilolization of a solution of Compound I in water (Example 3, section A.9). The moisture sorption and desorption study was conducted according to the procedures outlined in Example 3, section B. 10.

[2] = Approximate solubility of Compound I in different solvents; conditions: most solvents, with the exceptions of DMF, methanol, TFE, water and water:solvent mixtures
Procedure: Compound I prepared by the method described in Example 1 was used for the solubility study. Solvents and other reagents were of ACS or HPLC grade and were used as received.
A weighed sample (typically about 20-25 mg) of Compound I was treated at ambient temperature with aliquots (typically ≧50 μL) of the test solvent with sonication between additions. Solvents were either reagent or HPLC grade. Solubility was estimated from the total volume of solvent used to obtain a clear solution, as determined by visual inspection. Solubility is expressed as “less than” when dissolution was not observed. If dissolution occurred after the last aliquot was added then solubility is expressed as “greater than or equal to” (≧). The actual solubilities may be greater than determined, due to over addition of solvent (large aliquots) or slow dissolution rates. Approximate solubilities of Compound I are summarized in Table A. The solubility values have been rounded to the nearest whole number and are reported to the nearest mg/mL.

[3] = Relative humidity stressing experiments (form by XRPD); conditions: for Form by XRPD after relative humidity stressing: 29 days
Description: Samples of Compound I were placed uncovered in approximately 58%, 88%, and 97% relative humidity jars. The samples were stored in the jars for approximately 8 days. The solids were collected and analyzed by XRPD for form identification. Aliquots of Form A of Compound I were stored under approximately 50% and 97% relative humidity for 29 days. An aliquot of a mixture of Form A+B was stressed at 88% relative humidity for 23 days. Amorphous Form was stressed at 58% and 88% relative humidity for 23 days.

Structure (SMILES): Cn1c(=O)cc(N2CCC[C@@H](N)C2)n(Cc2ccccc2C#N)c1=O.O=C(O)CCC(=O)O [Amorphous Form]
- Weight lost during sorption ([1]; at 75% relative humidity): Approximately 7%

Structure (SMILES): Cn1c(=O)cc(N2CCC[C@@H](N)C2)n(Cc2cc(F)ccc2C#N)c1=O [Compound I, 2-[6-(3-amino-piperidin-1-yl)-3-methyl-2,4-dioxo-3,4-dihydro-2H-pyrimidin-1-ylmethyl]-4-fluoro-benzonitrile succinate]
- XRPD Form post MB ([1]; lyophilized sample from H2O solution): low crystallinity A
- XRPD Form post MB ([1]; sample crystallized from H2O/ACN): A + small quantity of E
- XRPD Form post MB ([1]; sample prepared by CC from EtOH:H2O (95:5)): A + B
- Solubility (in words) [2]: Poor solubility

Structure (SMILES): Cn1c(=O)cc(N2CCC[C@@H](N)C2)n(Cc2cc(F)ccc2C#N)c1=O.O=C(O)CCC(=O)O [Form A]
- Stability (conclusion from characterization data) ([3]; ambient conditions): stable at ambient conditions
- Form by XRPD after relative humidity stressing ([3]; approximately 50% and 97% relative humidity): Form A
- Form by XRPD after relative humidity stressing ([3]; approximately 58% and 97% relative humidity): did not exhibit form changes
